Values joined by “and” are separate entries in the source; they are usually repeats but may differ in a detail not shown here. Identical values can stand only once.
molecular target: full length XPA protein (Homo sapiens, UniProt P23025); assay: biochemical; details: IC50 (μM), EMSA, 32P labeled 30 bp duplex DNA containing a single 1,2 dGpG cisplatin adduct, several values in a cell = separate determinations
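Further: XPA expressed in Sf9 cells, preincubated with compound on ice before adding DNA, complex resolved on native polyacrylamide gel at 4 °C, PhosphorImager band intensity, binding inhibition versus DMSO.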

Sequence of full length XPA protein (P23025 whole entry): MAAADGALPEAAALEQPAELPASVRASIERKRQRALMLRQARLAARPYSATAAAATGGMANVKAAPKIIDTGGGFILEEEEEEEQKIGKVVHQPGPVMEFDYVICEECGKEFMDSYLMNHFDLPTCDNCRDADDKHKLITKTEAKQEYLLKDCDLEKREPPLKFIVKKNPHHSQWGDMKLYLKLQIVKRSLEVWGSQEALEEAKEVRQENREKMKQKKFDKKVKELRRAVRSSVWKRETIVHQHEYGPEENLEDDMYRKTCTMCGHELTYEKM

Compound	IC50
COc1cccc(NC(=O)c2cc(-c3ccc(/C=C4\C(=O)N(c5cccc(C#N)c5)N=C4C)o3)ccc2Cl)c1 [NG-03-193, (Z)-2-chloro-5-(5-((1-(3-cyanophenyl)-3-methyl-5-oxo-1,5-dihydro-4H-pyrazol-4-ylidene)methyl)furan-2-yl)-N-(3-methoxyphenyl)benzamide]	> 25 µM
COc1cccc(NC(=O)c2cc(-c3ccc(CC4C(=O)N(c5ccc(C(=O)O)cc5)N=C4C)s3)ccc2Cl)c1 (stereo not drawn) [NG-03-238, 4-(4-((5-(4-Chloro-3-((3-methoxyphenyl)carbamoyl)phenyl)thiophen-2-yl)methyl)-3-methyl-5-oxo-4,5-dihydro-1H-pyrazol-1-yl)benzoic acid]	45 µM
COc1cccc(NC(=O)c2cc(-c3ccc(/C=C4\C(=O)N(c5cccc(C(=O)O)c5)N=C4C(F)(F)F)o3)ccc2Cl)c1 [NG-04-312, 3-(4-((5-(4-chloro-3-((3-methoxyphenyl)carbamoyl)phenyl)furan-2-yl)methylene)-5-oxo-3-(trifluoromethyl)-4,5-dihydro-1H-pyrazol-1-yl)benzoic acid]	> 50 µM
CCOC(=O)c1cccc(N2N=C(C)C(=Cc3ccc(C(=O)O)o3)C2=O)c1 [NG-02-154, 5-((1-(3-(ethoxycarbonyl)phenyl)-3-methyl-5-oxo-1,5-dihydro-4H-pyrazol-4-ylidene)methyl)furan-2-carboxylic acid]	45 µM
O=C(O)c1cccc(N2N=C(C(F)(F)F)C(Cc3ccc(-c4ccc(Cl)c(C(=O)NCC5CC5)c4)o3)C2=O)c1 (stereo not drawn) [NG-04-309, 3-(4-((5-(4-chloro-3-((cyclopropylmethyl)carbamoyl)phenyl)furan-2-yl)methyl)-5-oxo-3-(trifluoromethyl)-4,5-dihydro-1H-pyrazol-1-yl)benzoic acid]	40 µM
CC1=NN(c2ccc(C(=O)O)cc2)C(=O)C1Cc1ccc(-c2ccc(Cl)c(C(=O)NCc3ccc(F)cc3)c2)o1 (stereo not drawn) [NG-02-151, 4-(4-((5-(4-Chloro-3-((4-fluorobenzyl)carbamoyl)phenyl)furan-2-yl)methyl)-3-methyl-5-oxo-4,5-dihydro-1H-pyrazol-1-yl)benzoic acid]	15 µM and 35 µM
CCOC(=O)c1cccc(N2N=C(C)/C(=C/c3ccc(-c4ccc(Cl)c(C(=O)O)c4)o3)C2=O)c1 [Compound 31a, (Z)-2-Chloro-5-(5-((1-(3-(ethoxycarbonyl)phenyl)-3-methyl-5-oxo-1H-pyrazol-4(5H)-ylidene)methyl)furan-2-yl)benzoic acid]	> 25 µM
COc1cccc(CNC(=O)c2cc(-c3ccc(CC4C(=O)N(c5ccc(C(=O)O)cc5)N=C4C)o3)ccc2Cl)c1 (stereo not drawn) [NG-04-294, 4-(4-((5-(4-chloro-3-((3-methoxybenzyl)carbamoyl)phenyl)furan-2-yl)methyl)-3-methyl-5-oxo-4,5-dihydro-1H-pyrazol-1-yl)benzoic acid]	40 µM
COc1cccc(NC(=O)c2cc(-c3ccc(/C=C4\C(=O)N(c5cccc(C(=O)O)c5)N=C4C)s3)ccc2Cl)c1 [NG-03-203, (Z)-3-(4-((5-(4-chloro-3-((3-methoxyphenyl)carbamoyl)phenyl)thiophen-2-yl)methylene)-3-methyl-5-oxo-4,5-dihydro-1H-pyrazol-1-yl)benzoic acid]	3 µM and 7.5 µM and 11 µM
CC1=NN(c2cccc(C(=O)O)c2)C(=O)C1Cc1ccc(-c2ccc(Cl)c(C(=O)NCC3CC3)c2)s1 (stereo not drawn) [NG-03-231, 3-(4-((5-(4-Chloro-3-((cyclopropylmethyl)carbamoyl)phenyl)thiophen-2-yl)methyl)-3-methyl-5-oxo-4,5-dihydro-1H-pyrazol-1-yl)benzoic acid]	40 µM
O=C(O)c1cccc(N2N=C(C(F)(F)F)/C(=C/c3ccc(-c4ccc(Cl)c(C(=O)NCC5CC5)c4)o3)C2=O)c1 [NG-04-304, 3-(4-((5-(4-chloro-3-((cyclopropylmethyl)carbamoyl)phenyl)furan-2-yl)methylene)-5-oxo-3-(trifluoromethyl)-4,5-dihydro-1H-pyrazol-1-yl)benzoic acid]	> 50 µM
CCOC(=O)c1cccc(N2N=C(C)/C(=C/c3ccc(-c4ccc(Cl)c(C(=O)NCc5ccc(F)cc5)c4)o3)C2=O)c1 [Compound 33a, (Z)-Ethyl 3-(4-((5-(4-chloro-3-((4-fluorobenzyl)carbamoyl)phenyl)furan-2-yl)methylene)-3-methyl-5-oxo-4,5-dihydro-1H-pyrazol-1-yl)benzoate]	> 25 µM
CC1=NN(c2cccc(C(=O)O)c2)C(=O)C1Cc1ccc(-c2ccc(Cl)c(C(=O)NCc3ccc(F)cc3)c2)o1 (stereo not drawn) [NG-01-65, 3-(4-((5-(4-Chloro-3-((4-fluorobenzyl)carbamoyl)phenyl)furan-2-yl)methyl)-3-methyl-5-oxo-4,5-dihydro-1H-pyrazol-1-yl)benzoic acid]	> 25 µM
CCOC(=O)c1cccc(N2N=C(C(F)(F)F)C(=Cc3ccc(-c4ccc(Cl)c(C(=O)Nc5cccc(OC)c5)c4)o3)C2=O)c1 (mixture of isomers) [NG-04-311, ethyl 3-(4-((5-(4-chloro-3-((3-methoxyphenyl)carbamoyl)phenyl)furan-2-yl)methylene)-5-oxo-3-(trifluoromethyl)-4,5-dihydro-1H-pyrazol-1-yl)benzoate]	> 50 µM

The remaining lines, values ahead:

IC50	Compound
30 µM	COc1cccc(NC(=O)c2cc(-c3ccc(CC4C(=O)N(c5cccc(C(=O)O)c5)N=C4C(F)(F)F)o3)ccc2Cl)c1 (stereo not drawn) [NG-04-322, 3-(4-((5-(4-chloro-3-((3-methoxyphenyl)carbamoyl)phenyl)furan-2-yl)methyl)-5-oxo-3-(trifluoromethyl)-4,5-dihydro-1H-pyrazol-1-yl)benzoic acid]
40 µM	CC1=NN(c2cccc(C(=O)O)c2)C(=O)/C1=C\c1ccc(-c2ccc(Cl)c(C(=O)NC3CCOCC3)c2)o1 [Compound 34g, (Z)-3-(4-((5-(4-Chloro-3-((tetrahydro-2H-pyran-4-yl)carbamoyl)phenyl)furan-2-yl)methylene)-3-methyl-5-oxo-4,5-dihydro-1H-pyrazol-1-yl)benzoic acid]
12.5 µM	COc1cccc(NC(=O)c2cc(-c3ccc(CC4C(=O)N(c5cccc(C(=O)O)c5)N=C4C)s3)ccc2Cl)c1 (stereo not drawn) [NG-03-207, 3-(4-((5-(4-chloro-3-((3-Methoxyphenyl)carbamoyl)phenyl)thiophen-2-yl)methyl)-3-methyl-5-oxo-4,5-dihydro-1H-pyrazol-1-yl)benzoic acid]
3 µM	C=CCCCc1cccc(-c2ccc(/C=C3/C=NN(c4cccc(C(=O)O)c4)C3=O)o2)c1 [Compound 2922]
40 µM	CC1=NN(c2cccc(C(=O)O)c2)C(=O)/C1=C\c1ccc(-c2ccc(Cl)c(C(=O)NCc3ccccc3Cl)c2)o1 [NG-03-271, (Z)-3-(4-((5-(4-chloro-3-((2-chlorobenzyl)carbamoyl)phenyl)furan-2-yl)methylene)-3-methyl-5-oxo-4,5-dihydro-1H-pyrazol-1-yl)benzoic acid]
11 µM	COc1ccc(NC(=O)c2cc(-c3ccc(CC4C(=O)N(c5cccc(C(=O)O)c5)N=C4C)o3)ccc2Cl)cc1OC (stereo not drawn) [NG-03-206, 3-(4-((5-(4-Chloro-3-((3,4-dimethoxyphenyl)carbamoyl)phenyl)furan-2-yl)methyl)-3-methyl-5-oxo-4,5-dihydro-1H-pyrazol-1-yl)benzoic acid]
15 µM	O=C(O)c1cccc(N2N=C(C(F)(F)F)/C(=C/c3ccc(-c4ccc(Cl)c(C(=O)O)c4)o3)C2=O)c1 [NG-04-314, 5-(5-((1-(3-carboxyphenyl)-5-oxo-3-(trifluoromethyl)-1,5-dihydro-4H-pyrazol-4-ylidene)methyl)furan-2-yl)-2-chlorobenzoic acid]
12 µM	COc1cccc(NC(=O)c2cc(-c3ccc(/C=C4\C(=O)N(c5ccc(C(=O)O)cc5)N=C4C)s3)ccc2Cl)c1 [NG-03-236, (Z)-4-(4-((5-(4-Chloro-3-((3-methoxyphenyl)carbamoyl)phenyl)thiophen-2-yl)methylene)-3-methyl-5-oxo-4,5-dihydro-1H-pyrazol-1-yl)benzoic acid]
2.5 µM	CC1=NN(c2cccc(C(=O)O)c2)C(=O)/C1=C\c1ccc(-c2ccc(Cl)c(C(=O)COc3ccccc3Cl)c2)o1 [Compound 2249]
35 µM	CC1=NN(c2cccc(C(=O)O)c2)C(=O)C1=Cc1ccc(-c2ccc(Cl)c(C(=O)NCC3CCCCC3)c2)o1 (mixture of isomers) [NG-04-274, 3-(4-((5-(4-chloro-3-((cyclohexylmethyl)carbamoyl)phenyl)furan-2-yl)methylene)-3-methyl-5-oxo-4,5-dihydro-1H-pyrazol-1-yl)benzoic acid]
36 µM	CC1=NN(c2cccc(C(=O)O)c2)C(=O)/C1=C\c1ccc(-c2ccc(Cl)c(C(=O)NCc3ccccc3)c2)o1 [NG-03-270, (Z)-3-(4-((5-(3-(Benzylcarbamoyl)-4-chlorophenyl)furan-2-yl)methylene)-3-methyl-5-oxo-4,5-dihydro-1H-pyrazol-1-yl)benzoic acid]
32 µM	CC1=NN(c2cccc(C(=O)O)c2)C(=O)/C1=C\c1ccc(-c2ccc(Cl)c(C(=O)NC3CC3)c2)o1 [Compound 34f, (Z)-3-(4-((5-(4-Chloro-3-(cyclopropylcarbamoyl)phenyl)furan-2-yl)methylene)-3-methyl-5-oxo-4,5-dihydro-1H-pyrazol-1-yl)benzoic acid]
35 µM	COc1cccc(NC(=O)c2ccc(/C=C3\C(=O)N(c4cccc(C(=O)O)c4)N=C3C)o2)c1 [NG-02-162/ NG-02-162C, (Z)-3-(4-((5-((3-methoxyphenyl)carbamoyl)furan-2-yl)methylene)-3-methyl-5-oxo-4,5-dihydro-1H-pyrazol-1-yl)benzoic acid]
30 µM	CC1=NN(c2cccc(C(=O)O)c2)C(=O)/C1=C\c1ccc(-c2ccc(Cl)c(C(=O)O)c2)s1 [NG-03-224, (Z)-5-(5-((1-(3-Carboxyphenyl)-3-methyl-5-oxo-1,5-dihydro-4H-pyrazol-4-ylidene)methyl)thiophen-2-yl)-2-chlorobenzoic acid]
38 µM	COc1cccc(CNC(=O)c2cc(-c3ccc(/C=C4\C(=O)N(c5ccc(C(=O)O)cc5)N=C4C)o3)ccc2Cl)c1 [NG-03-286, (Z)-4-(4-((5-(4-Chloro-3-((3-methoxybenzyl)carbamoyl)phenyl)furan-2-yl)methylene)-3-methyl-5-oxo-4,5-dihydro-1H-pyrazol-1-yl)benzoic acid]
3 µM	CC1=NN(c2cccc(C(=O)O)c2)C(=O)/C1=C\c1ccc(-c2cccc(C(=O)OC(C)C)c2)o1 [Compound 3125]

From patent US11207296B2, “XPA inhibitor compounds and their use” (INDIANA UNIVERSITY RESEARCH AND TECHNOLOGY CORPORATION, priority 2017, dated 2021)
